In patent EP4763847A1 (Jiangsu Yahong Meditech Co., Ltd., priority 2023, dated 2025):

Experiments:
[1] = test system: HCT116-WT; test: Cell proliferation inhibition (CellTiter Glo), HCT116-WT cells; format: cell-based; conditions: 144 h, cultured 6 days with compound
Description: (§1) Test Example 2: Test of cell proliferation inhibition activity of the compounds
(§2) HCT116-WT (ATCC, CCL-247) and HCT116 MTAP KO (Cobioer Nanjing, CBP75002) cells were seeded into white low-transparency 96-well sterile cell culture plates at a density of 250 cells per well, respectively. The culture medium was McCoy's 5A Medium + 10% FBS. The plates were incubated overnight at 37°C with 5% CO2. The cells were treated with compounds gradiently with an initial concentration of 10000 nM, 4-fold dilution, and 8 concentration points. The last two columns were control wells with only DMSO added. The treated cells were continued to be cultured for 6 days. On the seventh day, 50 µL of CellTiter Glo® reagent was added to each well. After reacting on a shaker at room temperature for 10 minutes, the chemiluminescence signal in the plate was detected using the chemiluminescence detection method on a BIOTEK H1 multi-mode plate reader. […] Table 2: IC50 values of compounds for HCT116 MTAP KO/WT cell growth inhibition

[2] = test system: HCT116 MTAP KO; test: Cell proliferation inhibition (CellTiter Glo), HCT116 MTAP KO cells; format: cell-based; conditions: Homo sapiens, HCT-116, 144 h, cultured 6 days with compound
Description: as §1, §2

[3] = biological target: PRMT5-MTA (Homo sapiens, UniProt O14744); test: biochemical; conditions: IC50 (nM), PRMT5+MTA enzyme activity inhibition; PRMT5/MET50 protein 1 nM, 5'-deoxy-5'-adenosine 1 µM, SAM 2.5 µM, Histone H4 substrate 5 nM
Chain of PRMT5-MTA (O14744 whole entry): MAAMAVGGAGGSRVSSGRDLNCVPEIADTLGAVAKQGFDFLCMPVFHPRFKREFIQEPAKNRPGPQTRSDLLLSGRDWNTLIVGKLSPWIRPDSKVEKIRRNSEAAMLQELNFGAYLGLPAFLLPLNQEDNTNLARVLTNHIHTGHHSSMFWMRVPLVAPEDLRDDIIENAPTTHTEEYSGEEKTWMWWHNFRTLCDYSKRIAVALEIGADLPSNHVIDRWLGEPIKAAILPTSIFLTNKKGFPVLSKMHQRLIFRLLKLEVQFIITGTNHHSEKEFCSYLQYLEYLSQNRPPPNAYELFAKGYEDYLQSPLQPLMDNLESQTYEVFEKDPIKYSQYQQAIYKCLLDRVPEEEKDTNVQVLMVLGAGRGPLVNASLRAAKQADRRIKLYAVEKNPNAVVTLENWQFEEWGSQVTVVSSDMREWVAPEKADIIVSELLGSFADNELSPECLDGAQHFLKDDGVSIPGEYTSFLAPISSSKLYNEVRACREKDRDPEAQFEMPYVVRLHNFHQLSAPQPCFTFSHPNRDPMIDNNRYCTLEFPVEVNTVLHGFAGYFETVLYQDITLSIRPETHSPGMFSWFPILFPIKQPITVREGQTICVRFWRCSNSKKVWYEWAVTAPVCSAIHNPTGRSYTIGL
Chain of PRMT5-MTA (Q9BQA1 whole entry partner): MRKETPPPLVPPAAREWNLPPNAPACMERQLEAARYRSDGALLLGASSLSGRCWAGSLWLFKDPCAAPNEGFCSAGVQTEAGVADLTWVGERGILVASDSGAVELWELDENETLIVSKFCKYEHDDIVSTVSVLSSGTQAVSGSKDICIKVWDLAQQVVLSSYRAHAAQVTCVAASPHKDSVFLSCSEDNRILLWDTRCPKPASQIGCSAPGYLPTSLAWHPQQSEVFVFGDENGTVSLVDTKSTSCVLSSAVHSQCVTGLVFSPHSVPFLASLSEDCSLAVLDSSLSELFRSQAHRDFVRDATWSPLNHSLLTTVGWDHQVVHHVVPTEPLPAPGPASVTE
Description: The enzymatic inhibition activity of the compounds against PRMT5-MTA was detected using the AlphaScreen method. A 1× methyltransferase assay buffer IV (Signalchem) was prepared as a dilution solution for each component of the enzymatic reaction. […] The test compounds were added to all wells except the control wells in a 3-fold dilution series of 10 concentration points starting from 1000 nM using a Tecan D300e. After centrifugation at 1000 rpm for 1 minute in a centrifuge, the plate was incubated at 23°C for 15 minutes. Histone H4 substrate at a final concentration of 5 nM was added to the plate at 4 µL per well. After centrifugation at 1000 rpm for 1 minute in a centrifuge, the plate was reacted in an incubator at 23°C for 45 minutes. Anti-Histone H4 (symmetric dimethyl R3) antibody (Abcam) was pre-incubated with 50 µg/mL AlphaScreen Protein A Acceptor beads (PerkinElmer) at room temperature for 10 minutes, and then added to the plate in a volume of 10 µL per well, followed by reaction at room temperature for 1 hour. 10 µL of 50 µg/mL AlphaScreen Streptavidin Donor beads (PerkinElmer) were added to each well, and reacted at room temperature for 1 hour. The signal values in the plate were detected using the Alpha method on an Envision multi-mode plate reader. The IC50 values of the compounds for PRMT5/MET50 enzyme activity inhibition were calculated in Xlfit 5.0 software.

Row | Compound | IC50 [1] [nM] | IC50 [2] [nM] | IC50 [3] [nM]
1 | CNC(N)=Nc1ccc(C(=O)N(Cc2ccc(C(F)(F)F)cn2)n2ccc3ccccc32)cn1 [Compound 62] | 1790 | 76 | 4.1
2 | CNC(N)=Nc1ccc(C(=O)N(Cc2ccc(C(F)(F)F)cn2)N2CCc3ccccc32)cn1 [Compound 64] | 1960 | 63 | 3.2
3 | CNC(N)=Nc1ccc(C(=O)N(Cc2ccc(-c3cccnc3)cn2)[C@H](C)c2ccccc2F)cn1 [Compound 68] | 1990 | 169 | 7.7
4 | CNC(N)=Nc1ccc(C(=O)N(Cc2ccc(-c3cnc(C)nc3)cn2)[C@H](C)c2ccccc2F)cn1 [Compound 70] | 2580 | 150 | 3.9
5 | CN/C(N)=N\c1ccc(C(=O)N(Cc2ccc3nc(C)sc3c2)[C@H](C)c2ccccc2F)cn1 [Compound 78, (R,Z)-6-((amino(methylamino)methylene)amino)-N-(1-(2-fluorophenyl)ethyl)-N-((2-methylbenzo[d]thiazol-6-yl)methyl)nicotinamide] | 1860 | 287 | 7.7
6 | CNC(N)=Nc1ccc(C(=O)N(Cc2ccc3sc(C4CCN(C)CC4)nc3c2)[C@H](C)c2ccccc2F)cn1 [Compound 79] | 3440 | 782 | 3.1
7 | CNC(N)=Nc1ccc(C(=O)N(Cc2ccc(C(F)(F)F)cn2)[C@@H]2CCc3ccccc32)cn1 [Compound 83] | 1710 | 195 | 4
8 | CNC(N)=Nc1ccc(C(=O)N(Cc2ccc(C(F)(F)F)cn2)[C@H]2CCc3ccccc32)cn1 [Compound 87] | 3310 | 975 | 2.7
9 | CNC(N)=Nc1ccc(C(=O)N(Cc2ccc(C(F)(F)F)cn2)C(C)c2ccccc2Cl)cn1 (stereo not drawn) [Compound 88] | 3840 | 616 | 3.3
10 | CNC(N)=Nc1ccc(C(=O)N(Cc2ccc(C(F)(F)F)cn2)C2CCOc3cccnc32)cn1 (stereo not drawn) [Compound 90] | 1520 | 81 | 1.5
11 | CNC(N)=Nc1ccc(C(=O)N(Cc2ccc(C(F)(F)F)cn2)[C@H](C)c2cccc(F)c2F)cn1 [Compound 91] | 2010 | 96 | 2.2

Continued, values first:

Row | IC50 [1] [nM] | IC50 [2] [nM] | IC50 [3] [nM] | Compound
12 | 769 | 28 | 1.4 | CNC(N)=Nc1ccc(C(=O)N(Cc2ccc(C(F)(F)F)cn2)C2CCCc3ccccc32)cn1 (stereo not drawn) [Compound 61]
13 | 672 | 145 | 5.7 | CN/C(N)=N\c1ccc(C(=O)N(Cc2ccc(-c3ccc(N4CCOCC4)nc3)cn2)[C@H](C)c2ccccc2F)cn1 [Compound 67, (R,Z)-6-((amino(methylamino)methylene)amino)-N-(1-(2-fluorophenyl)ethyl)-N-((6'-morpholino-[3,3'-bipyridin]-6-yl)methyl)nicotinamide]
14 | 643 | 50 | 4.8 | CNC(N)=Nc1ccc(C(=O)N(Cc2ccc(-c3cnn(C(F)(F)F)c3)cn2)[C@H](C)c2ccccc2F)cn1 [Compound 69]
15 | 1090 | 62 | 7.7 | CNC(N)=Nc1ccc(C(=O)N(Cc2ccc(-c3ccc(C)nc3)cn2)[C@H](C)c2ccccc2F)cn1 [Compound 71]
16 | 1080 | 72 | 6.5 | CNC(N)=Nc1ccc(C(=O)N(Cc2ccc(-c3cnc4c(cnn4C)c3)cn2)[C@H](C)c2ccccc2F)cn1 [Compound 73]
17 | 744 | 41 | 8 | CNC(N)=Nc1ccc(C(=O)N(Cc2ccc(C(C)F)cn2)[C@H](C)c2ccccc2F)cn1 (stereo partly drawn) [Compound 74, 6-((Z)-(amino(methylamino)methylene)amino)-N-((5-(1-fluoroethyl)pyridin-2-yl)methy 1)-N-((R)-1-(2-fluorophenyl)ethyl)nicotinamide]
18 | 844 | 36 | 2.6 | CN/C(N)=N\c1ccc(C(=O)N(Cc2ccc(C(C)(C)F)cn2)[C@H](C)c2ccccc2F)cn1 [Compound 75, (R,Z)-6-((amino(methylamino)methylene)amino)-N-(1-(2-fluorophenyl)ethyl)-N-((5-(2-fluoropropan-2-yl)pyridin-2-yl)methyl)nicotinamide]
19 | 345 | 32 | 5.4 | CN/C(N)=N\c1ccc(C(=O)N(Cc2ccc(C(C)(F)F)cn2)[C@H](C)c2ccccc2F)cn1 [Compound 76, (R,Z)-6-((amino(methylamino)methylene)amino)-N-((5-(1,1-difluoroethyl)pyridin-2-yl)methyl)-N-(1-(2-fluorophenyl)ethyl)nicotinamide]
20 | 330 | 28 | 4 | CN/C(N)=N\c1ccc(C(=O)N(Cc2ccc(OC(F)(F)F)cn2)[C@H](C)c2ccccc2F)cn1 [Compound 77, (R,Z)-6-((amino(methylamino)methylene)amino)-N-(1-(2-fluorophenyl)ethyl)-N-((5-(trifluoromethoxy)pyridin-2-yl)methyl)nicotinamide]
21 | 226 | 18 | 4.2 | CN/C(N)=N\c1ccc(C(=O)N(Cc2ccc(C(F)(F)F)cn2)[C@H](C)c2ccc(F)cc2F)cn1 [Compound 82, (R,Z)-6-((amino(methylamino)methylene)amino)-N-(1-(2,4-difluorophenyl)ethyl)-N-((5-(trifluoromethyl)pyridin-2-yl)methyl)nicotinamide]
22 | 290 | 11 | 4 | CNC(N)=Nc1ccc(C(=O)N(Cc2ccc(C(F)(F)F)cn2)[C@H](C)c2cc(F)ccc2F)cn1 [Compound 85]
23 | 867 | 60 | 0.7 | CNC(N)=Nc1ccc(C(=O)N(Cc2ccc(C(F)(F)F)cn2)C2CCOc3ccccc32)cn1 (stereo not drawn) [Compound 86]
24 | 421 | 12 | 0.6 | CNC(N)=Nc1ccc(C(=O)N(Cc2ccc(C(F)(F)F)cn2)[C@H](C)c2ccccc2F)cn1 [Compound 89]
25 | 1480 | 134 | 1.6 | CN/C(N)=N\c1ccc(C(=O)N(Cc2ccc(C(F)(F)F)cn2)C2CCc3cccnc32)cn1 (stereo not drawn) [Compound 92, (Z)-6-((amino(methylamino)methylene)amino)-N-(6,7-dihydro-5H-cyclopenta[b]pyridin-7-yl)-N-((5-(trifluoromethyl)pyridin-2-yl)methyl)nicotinamide]
26 | 912 | 49 | 6.6 | CN/C(N)=N\c1ccc(C(=O)N(Cc2ccc(C(F)(F)F)cn2)C(c2ccccc2F)C2CC2)cn1 (stereo not drawn) [Compound 94, (Z)-6-((amino(methylamino)methylene)amino)-N-(cyclopropyl(2-fluorophenyl)methyl) -N-((5-(trifluoromethyl)pyridin-2-yl)methyl)nicotinamide]
27 | 366 | 22 | 3.5 | CN/C(N)=N\c1ccc(C(=O)N(Cc2ccc(C(F)(F)F)cn2)[C@@H]2CCCc3ccccc32)cn1 [Compound 96, (R,Z)-6-((amino(methylamino)methylene)amino)-N-(1,2,3,4-tetrahydronaphthalen-1-yl) -N-((5-(trifluoromethyl)pyridin-2-yl)methyl)nicotinamide]
